Assay results: patent US20250312412A1, “METHODS FOR TREATING DRY EYE DISEASE” (The Schepens Eye Research Institute, Inc., priority 2022, published 2025)
Residues, ends and D or L forms follow the SMILES beside them.

Key:
goblet cells = assay: Goblet cell count in conjunctival tissue sections of dry eye mice, Example 1; type: in vivo; conditions: conjunctiva, mice with dry eye disease treated twice daily
Description: With continued reference to the study of Example 1, ocular tissue was harvested from the mice and tissue sections were prepared for microscopy analysis. Cross-sections of the conjunctiva were stained and the images were inspected to quantify goblet cell density. Goblet cells within the conjunctival epithelium secrete mucins onto the surface of the eye. FIG. 3A is an image of conjunctiva from a healthy mouse with no dry eye disease, and the goblet cells are visible as the darkly stained, plump cells. FIGS. 3B-3E are images from the conjunctiva from a subject in the animals with dry eye disease and treated twice daily with saline as a control (FIG. 3B), cyclosporine ophthalmic emulsion (RESTASIS®; FIG. 3C), lifitegrast ophthalmic solution (XIIDRA®) (FIG. 3D), or anti-IL-17A antibody (FIG. 3E). The numbers of goblet cells were counted, and FIG. 3F is a bar graph of the percent of normal goblet cells for the normal (healthy) mice and mice with dry eye disease treated with saline, cyclosporine, lifitegrast or an IL-17A inhibitor. […] Subjects with dry eye disease and treated with cyclosporine or with lifitegrast had about 60% of the normal number of goblet cells. […]

[1] = system: mice induced with dry eye disease; assay: Corneal fluorescein staining (CFS) score in mice with induced dry eye disease, Example 1; type: in vivo; conditions: topical to the eye, day 4 to day 12; antibody 1 wt % once or twice daily, lifitegrast 5 wt % twice daily, cyclosporine 0.05 wt % twice daily
Description: FIG. 1 is a graph of corneal fluorescein staining (CFS) scored using the National Eye Institute Industry Workshop Scale of 0-15, as a function of time, in days, in mice induced with dry eye disease by placing them in a controlled-environment chamber (relative humidity: <20%, dry airflow: 15 L/min, temperature: 21˜23° C.) for 14 days. Corneal epithelial disease was evaluated using corneal fluorescein staining (CFS) and scored using the National Eye Institute Industry Workshop Scale of 0-15, at day 0 (normal baseline), day 4 (before instillation of topical therapy), day 7, day 10, and […] in mice treated by topical application to the eye with an anti-IL-17A antibody once daily (closed circles) or twice daily (closed squares), lifitegrast (XIIDRA®) twice daily (inverted triangles), cyclosporine (RESTASIS®) twice daily (triangles), or saline twice daily (diamonds).
In a first study, described in Example 1, treatment of dry eye disease with an IL-17 cytokine inhibitor, lifitegrast ophthalmic solution (XIIDRA®), and cyclosporine ophthalmic emulsion (RESTASIS®) were compared. […] The test compounds were applied topically to the eye for 9 days (from day 4 to day 12), and disease severity was evaluated using corneal fluorescein staining (CFS) and scored using the National Eye Institute Industry Workshop Scale of 0-15 on days 4, 7, 10 and 12. […]

[2] = system: human corneal epithelial cells; assay: Co-culture of human corneal epithelial cells and Th17 cells, density and morphology by microscopy, Examples 2 and 3; type: cell-based; conditions: 0.1 μM, 1 μM, 10 μM and 100 μM; 24 hours
Description: A co-culture of human corneal epithelial cells and Th17 cells was prepared, to mimic the in vivo interaction between Th17 cells and cornea tissue in dry eye disease. The therapeutic efficacy of an IL-17 inhibitor to protect the human corneal epithelial cells from Th17-induced damage was tested. Immortalized human corneal epithelial cells were obtained. To acquire human Th17 cells, naïve CD4+ T cells were first purified from primary human peripheral blood mononuclear cells (StemCell) by negative selection using MACS separation, follow by in vitro polarization to Th17 cells using human Th17 cell differentiation kit (RnD Systems) in X-VIVO 15 medium (Lonza). Successful differentiation of human Th17 cells was confirmed by flow cytometry before co-culture. At about 80% confluence of human corneal epithelial cell culture, 1×10^5 Th17 cells were added, with and without an IL-17 inhibitor. After 24 hours of co-culture in the presence of the IL-17 inhibitor, the density and morphology of human corneal epithelial cells were observed under a bright-light inverted microscope equipped with a camera.
A co-culture of human corneal epithelial cells and Th17 cells was prepared, to mimic the in vivo interaction between Th17 cells and cornea tissue in dry eye disease. The therapeutic efficacy of an IL-17 inhibitor to protect the human corneal epithelial cells from Th17-induced damage was tested. […]

| Compound | goblet cells, percent of the normal number (goblet cells) | effect on dry eye disease severity (disease score, CFS) [1] | toxicity to human corneal epithelial cells [2] |
| --- | --- | --- | --- |
| CS(=O)(=O)c1cccc(C[C@H](NC(=O)c2c(Cl)cc3c(c2Cl)CCN(C(=O)c2ccc4ccoc4c2)C3)C(=O)O)c1 [lifitegrast] | about 60% | no improvement in reducing in disease severity for the first six days of treatment, followed by an improved disease score at day 12 | – |
| CC[C@H](C)[C@H](NC(=O)[C@H](Cc1c[nH]c2ccccc12)NC(=O)[C@H](CC(=O)O)NC(=O)[C@H](Cc1c[nH]c2ccccc12)NC(=O)[C@H](CC(C)C)NC(=O)[C@H](CC(=O)O)NC(=O)[C@H](C)NC(=O)[C@@H]1CCCN1C(=O)[C@@H](NC(=O)[C@@H](NC(=O)[C@@H](NC(=O)[C@H](Cc1c[nH]cn1)NC(=O)[C@@H](N)C(C)C)C(C)C)[C@@H](C)O)[C@@H](C)CC)C(=O)N[C@@H](CC(N)=O)C(=O)N[C@@H](CCCCN)C(=O)O [SEQ ID NO: 1, VHVTIPADLWDWINK] (H-VHVTIPADLWDWINK-OH) | – | – | not toxic to the human corneal epithelial cells |
